Measurements as given in patent US8471005B2 (Cephalon, Inc., priority 2008, dated 2013).
Read-outs that look alike come from different tables or passages of the source.

What was measured:
ALK = target: T1, ALK (Homo sapiens, UniProt Q9UM73); assay: ALK Kinase Assay (ELISA/TRF, PLC-γ substrate); type: biochemical; conditions: read-out: ALK Potency
T1 construct: host or cells: baculovirus expression system
How it was run: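 Read-out is time-resolved fluorescence from a Eu-N1-labeled PT66 antibody that binds phosphorylated PLC-γ, the substrate coated at 10 μg/mL in TBS. ALK at 30 ng/ml starts the reaction, which runs 15 minutes at 37° C.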

JAK2 = target: T2, JAK2 (Homo sapiens, UniProt O60674); assay: Recombinant Human JAK2 Kinase Assay (TRF); type: biochemical; conditions: read-out: JAK2 Potency
T2 construct: host or cells: baculovirus expression system
T2 sequence (O60674 whole entry): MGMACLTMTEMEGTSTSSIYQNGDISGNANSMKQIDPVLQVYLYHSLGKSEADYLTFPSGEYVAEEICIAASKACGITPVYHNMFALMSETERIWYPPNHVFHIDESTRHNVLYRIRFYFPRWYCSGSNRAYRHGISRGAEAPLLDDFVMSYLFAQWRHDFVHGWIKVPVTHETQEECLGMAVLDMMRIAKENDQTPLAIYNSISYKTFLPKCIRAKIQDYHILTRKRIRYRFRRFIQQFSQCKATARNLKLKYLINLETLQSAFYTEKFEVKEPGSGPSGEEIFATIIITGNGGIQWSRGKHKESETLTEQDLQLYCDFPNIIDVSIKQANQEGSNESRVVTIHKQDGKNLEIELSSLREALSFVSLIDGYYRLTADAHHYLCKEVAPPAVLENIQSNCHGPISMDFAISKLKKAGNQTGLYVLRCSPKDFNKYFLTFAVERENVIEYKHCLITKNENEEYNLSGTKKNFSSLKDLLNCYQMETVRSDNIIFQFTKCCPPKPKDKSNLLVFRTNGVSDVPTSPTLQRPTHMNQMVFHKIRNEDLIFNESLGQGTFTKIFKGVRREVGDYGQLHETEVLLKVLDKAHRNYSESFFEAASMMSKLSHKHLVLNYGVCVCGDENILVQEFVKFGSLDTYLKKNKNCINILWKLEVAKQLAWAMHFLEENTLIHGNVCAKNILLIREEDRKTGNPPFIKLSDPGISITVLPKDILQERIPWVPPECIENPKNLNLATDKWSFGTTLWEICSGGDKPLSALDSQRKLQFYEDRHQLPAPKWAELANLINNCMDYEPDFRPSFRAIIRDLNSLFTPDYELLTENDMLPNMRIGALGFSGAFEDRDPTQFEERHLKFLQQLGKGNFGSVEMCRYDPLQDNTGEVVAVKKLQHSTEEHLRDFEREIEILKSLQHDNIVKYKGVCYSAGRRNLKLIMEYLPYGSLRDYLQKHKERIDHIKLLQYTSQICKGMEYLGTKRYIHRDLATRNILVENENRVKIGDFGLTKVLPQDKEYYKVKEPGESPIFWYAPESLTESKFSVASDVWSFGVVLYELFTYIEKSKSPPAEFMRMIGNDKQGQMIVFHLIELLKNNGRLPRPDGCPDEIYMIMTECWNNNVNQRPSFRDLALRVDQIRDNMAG
How it was run: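 Europium-labelled PY100 antibody reported tyrosine phosphorylation of a Neutravidin-captured biotinyl 15-mer peptide by JAK2 (baculovirus-expressed, 15 ng/ml). Conditions: 20 mM HEPES pH 7.2, 0.2 μM ATP, 1 mM MnCl2, 0.1% BSA, DMSO 2.5% final, 20 min at room temperature.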

[1] = ALK kinase inhibition, 1 μM ATP
[2] = JAK2 kinase inhibition, 0.2 μM ATP

T1 sequence (Q9UM73 19-1620): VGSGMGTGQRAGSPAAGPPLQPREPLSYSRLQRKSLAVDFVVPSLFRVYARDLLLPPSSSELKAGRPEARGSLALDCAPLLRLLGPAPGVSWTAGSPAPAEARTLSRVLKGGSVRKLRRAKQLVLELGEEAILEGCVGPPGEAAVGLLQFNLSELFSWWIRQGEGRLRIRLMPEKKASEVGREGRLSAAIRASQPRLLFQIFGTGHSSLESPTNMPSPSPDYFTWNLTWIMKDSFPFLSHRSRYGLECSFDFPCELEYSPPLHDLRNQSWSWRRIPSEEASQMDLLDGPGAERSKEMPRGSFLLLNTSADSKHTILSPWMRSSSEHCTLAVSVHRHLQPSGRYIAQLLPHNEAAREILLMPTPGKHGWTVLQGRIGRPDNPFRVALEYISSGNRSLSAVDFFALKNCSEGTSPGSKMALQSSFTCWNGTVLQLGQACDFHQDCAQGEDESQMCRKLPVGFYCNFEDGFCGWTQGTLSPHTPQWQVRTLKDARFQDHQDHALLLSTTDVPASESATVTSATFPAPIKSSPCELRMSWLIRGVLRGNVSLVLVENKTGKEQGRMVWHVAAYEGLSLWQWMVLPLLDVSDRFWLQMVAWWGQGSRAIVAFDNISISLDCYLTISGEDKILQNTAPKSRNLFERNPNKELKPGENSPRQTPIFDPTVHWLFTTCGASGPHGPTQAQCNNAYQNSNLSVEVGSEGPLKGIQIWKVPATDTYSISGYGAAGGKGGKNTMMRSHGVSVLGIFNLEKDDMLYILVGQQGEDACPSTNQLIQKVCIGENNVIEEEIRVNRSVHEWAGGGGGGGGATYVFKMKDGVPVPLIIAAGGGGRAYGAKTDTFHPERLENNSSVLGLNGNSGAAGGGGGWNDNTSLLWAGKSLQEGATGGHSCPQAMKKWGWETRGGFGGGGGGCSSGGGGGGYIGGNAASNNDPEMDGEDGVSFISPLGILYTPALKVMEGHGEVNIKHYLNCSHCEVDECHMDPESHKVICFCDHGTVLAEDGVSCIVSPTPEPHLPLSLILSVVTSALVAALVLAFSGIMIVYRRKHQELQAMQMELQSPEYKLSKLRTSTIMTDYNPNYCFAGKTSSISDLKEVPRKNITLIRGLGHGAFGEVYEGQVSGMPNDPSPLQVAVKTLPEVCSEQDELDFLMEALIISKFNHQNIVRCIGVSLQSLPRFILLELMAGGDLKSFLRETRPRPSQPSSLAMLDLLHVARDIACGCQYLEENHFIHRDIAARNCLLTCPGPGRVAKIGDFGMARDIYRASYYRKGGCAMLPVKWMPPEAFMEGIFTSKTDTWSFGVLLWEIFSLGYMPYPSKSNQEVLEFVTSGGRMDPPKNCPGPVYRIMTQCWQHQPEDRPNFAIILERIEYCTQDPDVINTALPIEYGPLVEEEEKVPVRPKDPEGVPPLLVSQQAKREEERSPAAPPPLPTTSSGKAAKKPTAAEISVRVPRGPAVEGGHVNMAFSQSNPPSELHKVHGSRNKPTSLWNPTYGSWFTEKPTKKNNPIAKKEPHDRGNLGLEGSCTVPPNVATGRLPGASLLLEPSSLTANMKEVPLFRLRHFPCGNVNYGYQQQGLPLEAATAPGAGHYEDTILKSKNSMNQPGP

SMILES	IC50 (ALK; ALK Kinase Inhibition)	IC50 (JAK2; JAK2 Kinase Inhibition)	IC50 (ALK; [1])	IC50 (JAK2; [2])
CN(C)S(=O)(=O)c1cccc(Nc2ncc3cc4ccccc4n3n2)c1 [Example 273, N,N-Dimethyl-3-([1,2,4]triazino[1,6-a]indol-2-ylamino)-benzenesulfonamide]	> 10000 nM	100 to 1000 nM	–	–
COc1ccc(-c2ccc3cnc(Nc4ccc5c(c4)CC(=O)N5C)nn23)cn1 [Example 384, 5-[7-(6-Methoxy-pyridin-3-yl)-pyrrolo[2,1-f][1,2,4]triazin-2-ylamino]-1-methyl-1,3-dihydro-indol-2-one]	1000 to 10000 nM	< 100 nM	–	–
CN1CCN(c2ccc(Nc3ncc4ccc(C5=CCC(S(C)(=O)=O)CC5)n4n3)cc2)CC1 (stereo not shown) [Example 620, [7-(4-Methanesulfonyl-cyclohex-1-enyl)-pyrrolo[2,1-f][1,2,4]triazin-2-yl]-[4-(4-methyl-piperazin-1-yl)-phenyl]-amine]	–	–	100 to 1000 nM	< 100 nM
COc1ccncc1-c1ccc2cnc(Nc3ccc(N4CCOCC4)cc3)nn12 [Example 1211, [7-(4-Methoxy-pyridin-3-yl)-pyrrolo[2,1-f][1,2,4]triazin-2-yl]-(4-morpholin-4-yl-phenyl)-amine]	–	–	1000 to 10000 nM	< 100 nM
COc1ccccc1-c1ccc2cnc(Nc3ccc(F)c(N4CCOCC4)c3)nn12 [Example 389, (4-Fluoro-3-morpholin-4-yl-phenyl)-[7-(2-methoxy-phenyl)-pyrrolo[2,1-f][1,2,4]triazin-2-yl]-amine]	100 to 1000 nM	< 100 nM	–	–
CC(=O)Nc1cccc(Nc2ncc3ccc(-c4cccc(NC(=O)C(C)(C)C)c4)n3n2)c1 [Example 881, N-{3-[2-(3-Acetylamino-phenylamino)-pyrrolo[2,1-f][1,2,4]triazin-7-yl]-phenyl}-2,2-dimethyl-propionamide]	–	–	1000 to 10000 nM	< 100 nM
Cn1cc(-c2ccc3cnc(Nc4ccc(N5CCOCC5)cc4)nn23)cn1 [Example 10, [7-(1-Methyl-1H-pyrazol-4-yl)-pyrrolo[2,1-f][1,2,4]triazin-2-yl]-(4-morpholin-4-yl-phenyl)-amine]	1000 to 10000 nM	< 100 nM	–	–
COc1cc(C2CCN(CCO)CC2)ccc1Nc1ncc2ccc(-c3cccc(S(=O)(=O)NC(C)(C)C)c3)n2n1 [Example 694, N-tert-Butyl-3-(2-{4-[1-(2-hydroxy-ethyl)-piperidin-4-yl]-2-methoxy-phenylamino}-pyrrolo[2,1-f][1,2,4]triazin-7-yl)-benzenesulfonamide]	–	–	< 100 nM	100 to 1000 nM
CC(O)c1cccc(Nc2ncc3ccc(-c4cccc(S(=O)(=O)NC(C)(C)C)c4)n3n2)c1 (stereo not shown) [Example 569, N-tert-Butyl-3-{2-[3-(1-hydroxy-ethyl)-phenylamino]-pyrrolo[2,1-f][1,2,4]triazin-7-yl}-benzenesulfonamide]	–	–	100 to 1000 nM	< 100 nM
CN1CCN(c2ccc(Nc3ncc4ccc(-c5ccc(C(=O)N6CCOCC6)cc5)n4n3)cc2)CC1 [Example 19, (4-{2-[4-(4-Methyl-piperazin-1-yl)-phenylamino]-pyrrolo[2,1-f][1,2,4]triazin-7-yl}-phenyl)-morpholin-4-yl-methanone]	100 to 1000 nM	< 100 nM	–	–
COc1cc(Nc2ncc3ccc(-c4cccc(Cl)c4)n3n2)ccc1N1CCOCC1 [Example 65, [7-(3-Chloro-phenyl)-pyrrolo[2,1-f][1,2,4]triazin-2-yl]-(3-methoxy-4-morpholin-4-yl-phenyl)-amine]	100 to 1000 nM	< 100 nM	–	–
CN1CCC(c2ccc(Nc3ncc4ccc(-c5cccnc5)n4n3)cc2)CC1 [Example 1179, [4-(1-Methyl-piperidin-4-yl)-phenyl]-(7-pyridin-3-yl-pyrrolo[2,1-f][1,2,4]triazin-2-yl)-amine]	–	–	100 to 1000 nM	< 100 nM
COc1cc2c(cc1Nc1ncc3ccc(-c4cccc5c4OCC5)n3n1)CCCC(N1CCN(CCO)CC1)C2 (stereo not shown) [Example 707, 2-(4-{2-[7-(2,3-Dihydro-benzofuran-7-yl)-pyrrolo[2,1-f][1,2,4]triazin-2-ylamino]-3-methoxy-6,7,8,9-tetrahydro-5H-benzocyclohepten-6-yl}-piperazin-1-yl)-ethanol]	–	–	< 100 nM	100 to 1000 nM
CCS(=O)(=O)Nc1cccc(-c2ccc3cnc(Nc4ccc(N5CCOCC5)cc4)nn23)c1 [Example 416, Ethanesulfonic acid {3-[2-(4-morpholin-4-yl-phenylamino)-pyrrolo[2,1-f][1,2,4]triazin-7-yl]-phenyl}-amide]	100 to 1000 nM	< 100 nM	–	–
CC(=O)N1CCCC(C)(C)c2ccc(Nc3ncc4ccc(-c5cnn(C)c5)n4n3)cc21 [Example 1381, 1-{5,5-Dimethyl-8-[7-(1-methyl-1H-pyrazol-4-yl)-pyrrolo[2,1-f][1,2,4]triazin-2-ylamino]-2,3,4,5-tetrahydro-benzo[b]azepin-1-yl}-ethanone]	1000 to 10000 nM	< 100 nM	–	–
CS(=O)(=O)N1Cc2cccc(-c3ccc4cnc(Nc5ccc(C6CN(CC(N)=O)C6)cc5)nn34)c2C1 [Example 582, 2-(3-{4-[7-(2-Methanesulfonyl-2,3-dihydro-1H-isoindol-4-yl)-pyrrolo[2,1-f][1,2,4]triazin-2-ylamino]-phenyl}-azetidin-1-yl)-acetamide]	–	–	1000 to 10000 nM	< 100 nM
COc1cc(N2CCN(C)CC2)ccc1Nc1ncc2cc3ccccc3n2n1 [Example 267, [2-Methoxy-4-(4-methyl-piperazin-1-yl)-phenyl]-[1,2,4]triazino[1,6-a]indol-2-yl-amine]	100 to 1000 nM	1000 to 10000 nM	–	–
CS(=O)(=O)c1cccc(-c2ccc3cnc(Nc4cccc(N5CCOCC5)c4)nn23)c1 [Example 184, [7-(3-Methanesulfonyl-phenyl)-pyrrolo[2,1-f][1,2,4]triazin-2-yl]-(3-morpholin-4-yl-phenyl)-amine]	1000 to 10000 nM	< 100 nM	–	–
CCOc1ccccc1-c1ccc2cnc(Nc3ccc(N4CCN(C)CC4)cc3)nn12 [Example 109, [7-(2-Ethoxy-phenyl)-pyrrolo[2,1-f][1,2,4]triazin-2-yl]-[4-(4-methyl-piperazin-1-yl)-phenyl]-amine]	< 100 nM	< 100 nM	–	–
CC(=O)Nc1cccc(Nc2ncc3ccc(-c4cccc(S(=O)(=O)N5CC[C@H](O)C5)c4)n3n2)c1 [Example 884, N-(3-{7-[3-((S)-3-Hydroxy-pyrrolidine-1-sulfonyl)-phenyl]-pyrrolo[2,1-f][1,2,4]triazin-2-ylamino}-phenyl)-acetamide]	–	–	1000 to 10000 nM	< 100 nM
CC(C)(C)NS(=O)(=O)c1cccc(-c2ccc3cnc(Nc4ccc5c(c4)CS(=O)(=O)C5)nn23)c1 [Example 663, N-tert-Butyl-3-[2-(2,2-dioxo-2,3-dihydro-1H-2$1(6)-benzo[c]thiophen-5-ylamino)-pyrrolo[2,1-f][1,2,4]triazin-7-yl]-benzenesulfonamide]	–	–	100 to 1000 nM	< 100 nM
CC(=O)N1CCCC(C)(C)c2ccc(Nc3ncc4ccc(-c5cccc(S(=O)(=O)NC(C)(C)C)c5)n4n3)cc21 [Example 1369, 3-[2-(1-Acetyl-5,5-dimethyl-2,3,4,5-tetrahydro-1H-benzo[b]azepin-8-ylamino)-pyrrolo[2,1-f][1,2,4]triazin-7-yl]-N-tert-butyl-benzenesulfonamide]	1000 to 10000 nM	< 100 nM	–	–
COCc1ccccc1-c1ccc2cnc(Nc3ccc(N4CCN(C)CC4)cc3)nn12 [Example 1500, [7-(2-Methoxymethyl-phenyl)-pyrrolo[2,1-f][1,2,4]triazin-2-yl]-[4-(4-methyl-piperazin-1-yl)-phenyl]-amine]	< 100 nM	< 100 nM	–	–
C[C@@H](O)CN1CCN(c2ccc(Nc3ncc4ccc(-c5cccc(Cl)c5)n4n3)cc2)CC1 [Example 208, (R)-1-(4-{4-[7-(3-Chloro-phenyl)-pyrrolo[2,1-f][1,2,4]triazin-2-ylamino]-phenyl}-piperazin-1-yl)-propan-2-ol]	100 to 1000 nM	< 100 nM	–	–
CCNS(=O)(=O)c1cccc(-c2ccc3cnc(Nc4ccc(C5CCN(CC(N)=O)CC5)cc4)nn23)c1 [Example 929, 2-(4-{4-[7-(3-Ethylsulfamoyl-phenyl)-pyrrolo[2,1f][1,2,4]triazin-2-ylamino]-phenyl}-piperidin-1-yl)-acetamide]	–	–	< 100 nM	< 100 nM
CN1CCN(c2ccc(Nc3ncc4ccc(Sc5ccccc5)n4n3)cc2)CC1 [Example 78, [4-(4-Methyl-piperazin-1-yl)-phenyl]-(7-phenylsulfanyl-pyrrolo[2,1-f][1,2,4]triazin-2-yl)-amine]	< 100 nM	< 100 nM	–	–
COc1ccccc1-c1ccc2cnc(Nc3ccc4nc[nH]c4c3)nn12 [Example 1306, (3H-Benzimidazol-5-yl)-[7-(2-methoxy-phenyl)-pyrrolo[2,1-f][1,2,4]triazin-2-yl]-amine]	–	–	100 to 1000 nM	< 100 nM
FC1(F)Oc2cccc(-c3ccc4cnc(Nc5ccc6c(c5)CCC(N5CCOCC5)CC6)nn34)c2O1 (stereo not shown) [Example 1535, [7-(2,2-Difluoro-benzo[1,3]dioxol-4-yl)-pyrrolo[2,1-f][1,2,4]triazin-2-yl]-(7-morpholin-4-yl-6,7,8,9-tetrahydro-5H-benzocyclohepten-2-yl)-amine]	1000 to 10000 nM	< 100 nM	–	–
COc1cccnc1-c1ccc2cnc(Nc3ccc(C4CCN(CC(N)=O)CC4)cc3)nn12 [Example 1531, 2-(4-{4-[7-(3-Methoxy-pyridin-2-yl)-pyrrolo[2,1-f][1,2,4]triazin-2-ylamino]-phenyl}-piperidin-1-yl)-acetamide]	1000 to 10000 nM	< 100 nM	–	–
